Reference: US20210307376A1, “Compositions Comprising Nicotine and/or Nicotine Salts and Ultrasonic Aerosolisation of Compositions Comprising Nicotine and/or Nicotine Salts” (priority 2020, published 2021)

Tests used:
[1] = cited from earlier work; for P (octanol:water partitioning coefficient): [solute in octanol]:[solute in aqueous buffer]; for P (octanol:water partitioning coefficient) / % Aqueous: phosphate buffer; for P (octanol:water partitioning coefficient) / logP / % Aqueous: pH 7.4; for logP: octanol : aqueous phosphate buffer; for % Nonpolar: share of solute in octanol phase
[2] = P 0.69 versus P 0.00145
Text: The partitioning coefficient can be used as a measure of lipid solubility.

[3] = test system: nicotinic receptors; details: inhaled; compared to other nicotine salts such as nicotine salicylate; cited from earlier work

| Molecule | P (octanol:water partitioning coefficient) [1] | logP [1] | % Aqueous [1] | % Nonpolar [1] | increase of partitioning coefficient P in comparison to levulinic acid [2] | increase in proportion of nicotine binding sites [3] |
| --- | --- | --- | --- | --- | --- | --- |
| CC(=O)CCC(=O)O [Levulinic Acid] | 0.00145 | −2.84 | 99.85% | 0.15% |  |  |
| CN1CCCC1c1cccnc1 (centres unmarked) [Nicotine] | 2.82 | 0.45 | 26% | 74% |  |  |
| Nicotine Levulinate | 0.69 | −0.16 | 59% | 41% | 500 fold | 20-50% |
